Measurements published in the NIST ThermoML archive (doi:10.1016/j.jct.2011.02.011).
Several values for one entry are separate records, joined by “and”; a condition that tells them apart may be missing. Equal values may be shown once.

Settings: Crystal, Calculated from knudsen effusion weight loss

[O-][n+]1ccccc1-c1ccccn1 [2,2'-bipyridyl N-oxide]
Settings | vapor or sublimation pressure
319.17 K | 5.02e-05 kPa and 4.83e-05 kPa and 4.82e-05 kPa
321.15 K | 6.32e-05 kPa and 6.13e-05 kPa
323.16 K | 7.8e-05 kPa and 8.26e-05 kPa and 7.96e-05 kPa
325.15 K | 0.0001 kPa and 9.94e-05 kPa and 0.000102 kPa
327.14 K | 0.000126 kPa and 0.000128 kPa and 0.000127 kPa
329.16 K | 0.000163 kPa and 0.000161 kPa and 0.000162 kPa
331.13 K | 0.000201 kPa and 0.000198 kPa and 0.0002 kPa
